For data set [1] the following is noted: cited from earlier work.
Data set [2] concerns the target T1, PTHR1 on UMR-106 cells (UniProt P25961 27-591, limits assumed).
T1 sequence (looked up): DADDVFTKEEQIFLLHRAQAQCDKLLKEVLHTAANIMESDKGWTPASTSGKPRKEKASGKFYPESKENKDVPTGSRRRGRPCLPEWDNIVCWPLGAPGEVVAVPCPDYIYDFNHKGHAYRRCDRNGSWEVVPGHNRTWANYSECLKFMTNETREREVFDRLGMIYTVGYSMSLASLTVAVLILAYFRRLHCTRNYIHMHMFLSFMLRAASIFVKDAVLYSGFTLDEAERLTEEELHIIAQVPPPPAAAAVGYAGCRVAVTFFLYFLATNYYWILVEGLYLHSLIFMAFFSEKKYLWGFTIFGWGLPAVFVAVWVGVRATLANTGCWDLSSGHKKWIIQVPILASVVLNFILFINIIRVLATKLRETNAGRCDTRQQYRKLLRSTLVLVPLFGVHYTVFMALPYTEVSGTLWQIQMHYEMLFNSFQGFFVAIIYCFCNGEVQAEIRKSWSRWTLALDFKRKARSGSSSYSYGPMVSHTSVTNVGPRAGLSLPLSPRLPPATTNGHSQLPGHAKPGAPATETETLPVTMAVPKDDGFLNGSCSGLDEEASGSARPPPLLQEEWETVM
As to the kind of experiment: cell-based or functional assay.

Broadly, the half-life is the time needed for the level to fall by half in the phase considered.

Consider “Transcon PTH(1-34): polyethylene glycol (PEG)-conjugated prodrug of PTH(1-34) by Ascendis Pharma A/S”, for which, in data set [1] (patients, after administration), the “time for which serum calcium is maintained at normal physiological levels” value is reported as no more than 24 hours.

Consider `CC[C@H](C)[C@H](NC(=O)[C@H](CCC(=O)O)NC(=O)[C@H](CO)NC(=O)[C@@H](NC(=O)[C@@H](N)CO)C(C)C)C(=O)N[C@@H](CCC(N)=O)C(=O)N[C@@H](CC(C)C)C(=O)N[C@@H](CCSC)C(=O)N[C@@H](Cc1cnc[nH]1)C(=O)N[C@@H](CC(N)=O)C(=O)N[C@@H](CC(C)C)C(=O)NCC(=O)N[C@@H](CCCCN)C(=O)N[C@@H](Cc1cnc[nH]1)C(=O)N[C@@H](CC(C)C)C(=O)N[C@@H](CC(N)=O)C(=O)N[C@@H](CO)C(=O)N[C@@H](CCSC)C(=O)N[C@@H](CCC(=O)O)C(=O)N[C@@H](CCCN=C(N)N)C(=O)N[C@H](C(=O)N[C@@H](CCC(=O)O)C(=O)N[C@@H](Cc1c[nH]c2ccccc12)C(=O)N[C@@H](CC(C)C)C(=O)N[C@@H](CCCN=C(N)N)C(=O)N[C@@H](CCCCN)C(=O)N[C@@H](CCCCN)C(=O)N[C@@H](CC(C)C)C(=O)N[C@@H](CCC(N)=O)C(=O)N[C@@H](CC(=O)O)C(=O)N[C@H](C(=O)N[C@@H](Cc1cnc[nH]1)C(=O)N[C@@H](CC(N)=O)C(=O)N[C@@H](Cc1ccccc1)C(=O)O)C(C)C)C(C)C` [TP(PTH(1-34)), teriparatide], for which the half-life in data set [1] (human, in vivo) is 30 min.

Turning to “triple-ECD-binding fusion protein T002G-K”, in data set [2], the EC50, biological activity (pGL4.29 reporter, fluorescence intensity) is 61.4 pM.

B1: human serum albumin nanobody NbHSA (VHH)
VHH: QVQLVESGGGLVQTGGSLRLSCAASGSTLVGHSVGFFRQAPGKEREPVVCISSTETVMYYTNSVKGRFTISRDNAKNTVWLQMDRLAPEDTAVYYCAARPQLCSALDYRYNSWGPGTQVTVSS
Regarding B1, the “EC50, biological activity (pGL4.29 reporter, fluorescence intensity)” value in data set [2] was found to be 0 pM.

The values above are taken from patent EP4763868A1, “RECOMBINANT PTH FUSION PROTEIN, CONSTRUCTION METHOD THEREFOR, AND APPLICATION THEREOF” (KANGZHONG (GUANGDONG) INC., priority 2024, dated 2025).
